{
  "source": "patent US9102967B2",
  "about": "“PmST2 enzyme for chemoenzymatic synthesis of α-2-3-sialylglycolipids” (priority 2012, dated 2015)",
  "key": {"MBP-PmST2-His6 [1]": {"molecular_target": "T1, MBP-PmST2-His6 (Pasteurella multocida, UniProt Q9CNC4, M25T)", "T1 construct": "used to clone of the full-length MBP-PmST2-His6 fusion protein in pMa1-c4X vector; made in house; host or cells: E. coli BL21(DE3)", "assay_type": "biochemical", "conditions": "MnCl2/MgCl2 1, 5, 10 or 20 mM; EDTA or 2-ME 1 or 10 mM; acceptor LacβPro-triazole-C14", "description": "Reactions were carried out in duplicate at 37° C. for 15 min in a total volume of 15 μl in a Tris-HCl buffer (200 mM, pH 8.0) containing LacβPro-triazole-C14 (2 mM), CMP-Neu5Ac (8 mM), 0.3% Triton X-100, and the enzyme (2.4 μg μl^−1). For metal effects, various concentrations (1, 5, 10, or 20 mM) of MgCl2 or MnCl2 were added and ethylenediaminetetraacetic acid (EDTA as chelating agent was used at two concentrations (1 or 10 mM). A reducing reagent 2-mercaptoethanol (2-ME) was used at two concentrations (1 or 10 mM). Reaction without metal ions, EDTA, or 2-ME was used as a control. All reactions were stopped by adding 15 μl of pre-chilled 95% ethanol and the reaction mixtures were kept on ice. The samples were centrifuged at 13,000 rpm for 5 min before the supernatants were analyzed by CE as described above."}, "MBP-PmST2-His6 [2]": {"molecular_target": "T1, MBP-PmST2-His6", "test": "Acceptor substrate specificity studies (CE analysis)", "assay_type": "biochemical", "conditions": "for % product formation: acceptor 2 mM, CMP-Neu5Ac 4 mM, 10 min, 37° C., pH 8.0, 0.4% Triton X-100; for % Relative: relative to LacβPro-triazole-C14 = 100", "description": "Enzymatic Reactions. All reactions were carried out in duplicate for 10 min at 37° C. in a total volume of 10 μl in Tris-HCl (200 mM, pH 8.0) containing an acceptor substrate (2 mM), CMP-Neu5Ac (4 mM), 0.4% Triton X-100, and enzyme (3.6 μg μl^−1). Addition of 15 μl of cold 95% ethanol was used to terminate each reaction. All reactions were incubated on ice for 10 min and were then centrifuged for 5 min at 13,000 rpm. The supernatant was transferred to a new vial for CE analysis."}, "PmST1 [3]": {"molecular_target": "T2, PmST1 (Pasteurella multocida, UniProt Q15KI8)", "T2 sequence (Q15KI8 entry or part of it)": "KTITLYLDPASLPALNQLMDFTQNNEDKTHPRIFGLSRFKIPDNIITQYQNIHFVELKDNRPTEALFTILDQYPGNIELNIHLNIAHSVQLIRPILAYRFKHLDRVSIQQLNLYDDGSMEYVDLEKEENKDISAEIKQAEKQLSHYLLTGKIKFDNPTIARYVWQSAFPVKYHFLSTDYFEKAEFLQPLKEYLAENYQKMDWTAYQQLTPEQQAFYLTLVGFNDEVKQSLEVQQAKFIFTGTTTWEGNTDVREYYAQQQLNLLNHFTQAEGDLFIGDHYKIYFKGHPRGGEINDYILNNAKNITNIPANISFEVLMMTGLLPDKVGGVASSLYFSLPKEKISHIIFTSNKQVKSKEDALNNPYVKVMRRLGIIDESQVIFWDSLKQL", "conditions": "cited from earlier work"}, "[4]": {"test_system": "N. meningitidis (MC58 and 406Y) Lst", "conditions": "previous report; cited from earlier work"}, "MBP-PmST2-His6 [5]": {"molecular_target": "T1, MBP-PmST2-His6", "assay_type": "biochemical", "conditions": "for Km / kcat / Vmax: apparent, 37° C.; for Km: Tris-HCl pH 8.0, 0.3% Triton X-100, varied substrate, other fixed (LacβPro-triazole-C14 2.0 mM or CMP-Neu5Ac 4.0 mM); for kcat: pH 8.0; for Vmax: pH 8.0, enzyme 14 μM", "description": "Reactions were carried out at 37° C. for […] in a total volume of 15 μl in Tris-HCl buffer (200 mM, pH 8.0) containing 2-mercaptoethanol (1 mM), 0.3% Triton X-100, enzyme (14 μM), with varied CMP-Neu5Ac concentrations (0.25, 0.5, 1.0, 2.0, 5.0, and 10.0 mM) and a fixed LacβPro-triazole-C14 (2.0 mM) concentration, or varied LacβPro-triazole-C14 concentrations (0.5, 1.0, 2.0, 5.0, 10.0, and 20.0 mM) or varied LacβPro2AA concentrations (0.5, 1.0, 2.0, 5.0, 10.0, and 25.0 mM) and a fixed CMP-Neu5Ac concentration (4.0 mM). HPLC assays were used for reactions with LacβPro2AA as the sialyltransferase acceptor and CE assays were used for reactions with LacβPro-triazole-C14 as the sialyltransferase acceptor. Apparent kinetic parameters were obtained by fitting the data (the average values of duplicate assay results) into the Michaelis-Menten equation using Grafit 5.0."}, "MBP-PmST2-His6 [6]": {"molecular_target": "T1, MBP-PmST2-His6", "test": "pH profile of α2-3-sialyltransferase reaction", "assay_type": "biochemical", "conditions": "acceptor 2 mM, 0.3% Triton X-100", "description": "Each reaction was carried out in duplicate at 37° C. for 15 min in a buffer (200 mM) with a total volume of 15 μl containing an acceptor (2 mM, LacβPro2AA or LacβPro-triazole-C14), CMP-Neu5Ac (8 mM), 0.3% Triton X-100, and the enzyme MBP-PmST2-His6 (2.4 μg μl^−1). Buffers used were: NaOAc-HOAc (pH 4.0-6.0), Tris-HCl (pH 7.0-9.0), and CHES (pH 10.0). Enzymatic reactions were terminated by adding 15 μl of pre-chilled 95% ethanol. All samples were kept on ice for 10 min and then centrifuged at 13,000 rpm for 5 min. Supernatants were analyzed by HPLC (for LacβPro2AA reaction) or CE (for LacβPro-triazole-C14 reaction) as described above for the time course studies."}, "MBP-PmST2-His6 [7]": {"molecular_target": "T1, MBP-PmST2-His6", "test": "Time-course study of α-2,3-sialyltransferase activity", "assay_type": "biochemical", "conditions": "acceptor 2 mM, CMP-Neu5Ac 8 mM, 37° C., pH 8.0", "description": "(§1) Enzymatic reactions were performed in a total volume of 20 μl (when LacβPro2AA was used as an acceptor) or 40 μl (when LacβPro-triazole-C 14 was used as an acceptor) in a Tris-HCl buffer (200 mM, pH 8.0) containing an acceptor (2 mM of LacβPro2AA or LacβPro-triazole-C14), CMP-Neu5Ac (8 mM), 0.3% Triton X-100, and a sialyltransferase ([…] MBP-PmST2-His6 or PmST1) at 37° C. At different time points (0, 1, 5, 10, 15, 20, 30, and 60 min), 1.5 μl aliquots were taken from the LacβPro2AA reaction and pre-chilled 12% acetonitrile aqueous solution (148.5 μl) was added to each aliquot. Similarly, 3.5 μl aliquots were taken from the LacβPro-triazole-C14 reaction at different time points and pre-chilled 95% ethanol (7 μl) was added to each aliquot. All samples were kept on ice for 10 min and then centrifuged for 5 min at 13,000 rpm. Supernatants from LacβPro2AA reactions were analyzed by a Shimadzu LC-2010A HPLC system equipped with a membrane on-line degasser, a temperature control unit, and a fluorescence detector (the excitation wavelength was set at 315 nm and the emission wavelength was set at 400 nm) using a reverse phase Premier C18 column (250×4.6 mm I.D., 5 μm particle size, Shimadzu) protected with a C18 guard column cartridge. Mobile phase used was 12% acetonitrile in water. Supernatants from LacβPro-triazole-C14 reactions were analyzed by a Beckman P/ACE MDQ capillary electrophoresis (CE) system (60 cm×75 μm i.d.) equipped with a PDA detector (optimal absorption at 214 nm). The running buffer used was sodium borate buffer (50 mM, pH 10.2) containing β-cyclcodextrin (20 mM)."}, "PmST1 [8]": {"molecular_target": "T2, PmST1", "test": "Time-course study of α-2,3-sialyltransferase activity", "assay_type": "biochemical", "description": "as §1"}},
  "data": [
    {"compound": "OCCS", "note": "[2-mercaptoethanol, reference compound]", "values": [
      {"measurement": "effect on α2,3-sialyltransferase activity (in words)", "setting": "MBP-PmST2-His6 [1]", "result": "did not affect"}
    ]},
    {"compound": "O=C(O)CN(CCN(CC(=O)O)CC(=O)O)CC(=O)O", "note": "[EDTA, ethylenediaminetetraacetic acid, reference compound]", "values": [
      {"measurement": "effect on α2,3-sialyltransferase activity (in words)", "setting": "MBP-PmST2-His6 [1]", "result": "did not affect the activity significantly"}
    ]},
    {"compound": "CCCCCCCCCCCCCCc1cn(CCCO[C@H]2O[C@H](CO)[C@H](O)[C@H](O[C@@H]3O[C@H](CO)[C@H](O)[C@H](O)[C@H]3O)[C@H]2NC(C)=O)nn1", "note": "[Galβ1-3GalNAcαPro-triazole-C14]", "values": [
      {"measurement": "% product formation", "setting": "MBP-PmST2-His6 [2]", "result": "<2", "unit": "%"},
      {"measurement": "% Relative", "setting": "MBP-PmST2-His6 [2]", "result": "<6", "unit": "%"}
    ]},
    {"compound": "CCCCCCCCCCCCCCc1cn(CCCOC2OC(CO)C(O)C(OC3OC(CO)C(O)C(O)C3O)C2NC(C)=O)nn1", "note": "(stereo not shown) [Galβ1-3GlcNAcβPro-triazole-C14]", "values": [
      {"measurement": "% product formation", "setting": "MBP-PmST2-His6 [2]", "result": "<4", "unit": "%"},
      {"measurement": "% Relative", "setting": "MBP-PmST2-His6 [2]", "result": "<11", "unit": "%"}
    ]},
    {"compound": "CCCCCCCCCCCCCCc1cn(CCCOC2OC(CO)C(O)C(O)C2O)nn1", "note": "(stereo not shown) [GalβPro-triazole-C14]", "values": [
      {"measurement": "% product formation", "setting": "MBP-PmST2-His6 [2]", "result": "9.2 ± 1.3", "unit": "%"},
      {"measurement": "% Relative", "setting": "MBP-PmST2-His6 [2]", "result": 25.5, "unit": "%"}
    ]},
    {"compound": "[Cl-].[Cl-].[Mg+2]", "note": "[MgC12, MgCl2]", "values": [
      {"measurement": "effect on α2,3-sialyltransferase activity (in words)", "setting": "MBP-PmST2-His6 [1]", "result": "did not affect the activity significantly"},
      {"measurement": "effect on sialyltransferase activity of PmST1 (in words)", "setting": "PmST1 [3]", "result": "does not stimulate or change the sialyltransferase activity"},
      {"measurement": "stimulation of activity", "setting": "[4]", "result": 2, "unit": "fold"}
    ]},
    {"compound": "[Cl][Mn][Cl]", "note": "[MnC12, MnCl2]", "values": [
      {"measurement": "effect on α2,3-sialyltransferase activity (in words)", "setting": "MBP-PmST2-His6 [1]", "result": "did not affect the activity significantly"},
      {"measurement": "effect on sialyltransferase activity of PmST1 (in words)", "setting": "PmST1 [3]", "result": "activity decreases"},
      {"measurement": "stimulation of activity", "setting": "[4]", "result": 3, "unit": "fold"}
    ]},
    {"compound": "Galβ1-3GlcNAcαPro-triazole-C14", "values": [
      {"measurement": "% product formation", "setting": "MBP-PmST2-His6 [2]", "result": "<2", "unit": "%"},
      {"measurement": "% Relative", "setting": "MBP-PmST2-His6 [2]", "result": "<6", "unit": "%"}
    ]},
    {"compound": "Galβ1-4GlcNAcβPro-triazole-C14 [LacNAcβPro-triazole-C14]", "values": [
      {"measurement": "% product formation", "setting": "MBP-PmST2-His6 [2]", "result": "18.5 ± 2.7", "unit": "%"},
      {"measurement": "% Relative", "setting": "MBP-PmST2-His6 [2]", "result": 51.2, "unit": "%"}
    ]},
    {"compound": "Galβ1-4GlcβPro-triazole-C14 [LacβPro-triazole-C14]", "values": [
      {"measurement": "fold difference in KM values (stronger binding) versus LacβPro2AA", "setting": "MBP-PmST2-His6 [5]", "result": 7, "unit": "fold"},
      {"measurement": "Km", "setting": "MBP-PmST2-His6 [5]", "result": "4100 ± 300", "unit": "µM"},
      {"measurement": "kcat", "setting": "MBP-PmST2-His6 [5]", "result": "0.2 ± 0.017", "unit": "s⁻¹"},
      {"measurement": "Vmax", "setting": "MBP-PmST2-His6 [5]", "result": "(1.7 ± 0.1) × 10^−1 mM min^−1"},
      {"measurement": "fold higher catalytic activity versus LacβPro2AA as acceptor", "setting": "MBP-PmST2-His6 [5]; from differences in KM and kcat", "result": 10, "unit": "fold"},
      {"measurement": "optimal pH range with this acceptor", "setting": "MBP-PmST2-His6 [6]", "result": "5.0-8.0"},
      {"measurement": "acceptor substrate for PmST2 (in words)", "setting": "MBP-PmST2-His6 [2]", "result": "best acceptor substrate"},
      {"measurement": "% product formation", "setting": "MBP-PmST2-His6 [2]", "result": "36.1 ± 1.5", "unit": "%"},
      {"measurement": "% Relative", "setting": "MBP-PmST2-His6 [2]", "result": 100, "unit": "%"},
      {"measurement": "sialylation achieved in 1 hour", "setting": "MBP-PmST2-His6 [7]", "result": 60, "unit": "%"},
      {"measurement": "time at which the sialyltransferase reaction reached optimum", "setting": "PmST1 [8]; acceptor 2 mM, CMP-Neu5Ac 8 mM, 37° C., pH 8.0", "result": 15, "unit": "min"},
      {"measurement": "product formation at optimum", "setting": "PmST1 [8]; at 15 min", "result": "less than 5%"}
    ]},
    {"compound": "cytidine 5′-monophosphate N-acetylneuraminic acid [CMP-Neu5Ac, reference compound]", "values": [
      {"measurement": "Km", "setting": "MBP-PmST2-His6 [5]", "result": "1300 ± 100", "unit": "µM"},
      {"measurement": "kcat", "setting": "MBP-PmST2-His6 [5]", "result": "0.0883 ± 0.0067", "unit": "s⁻¹"},
      {"measurement": "Vmax", "setting": "MBP-PmST2-His6 [5]", "result": "(7.4 ± 0.5) × 10^−2 mM min^−1"}
    ]},
    {"compound": "lactosyl ceramide [reference compound]", "values": [
      {"measurement": "acceptor substrate for PmST2 (in words)", "setting": "MBP-PmST2-His6 [2]", "result": "not an acceptor"}
    ]}
  ]
}
